Test results: patent US9340500B2, “Aromatic heterocyclic derivative having TRPV4-inhibiting activity” (SHIONOGI & CO., LTD., priority 2011, dated 2016)
Values after ≈ are worked out from the molar mass of the structure shown.

Assays:
human TRPV4 = human TRPV4 (Homo sapiens (Human), UniProt Q9HBA0); assay: Test Example 3: measurement of TRPV4 inhibitory activity (Fluo-3, FDSS 3000, 4α-PDD); assay type: cell-based; conditions: hTRPV4/CHO cells, calculated from IC50 and 4α-PDD EC50
In short: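 Fluo-3-loaded CHO-K1 cells stably expressing TRPV4 in HEPES/probenecid Hanks buffer pH 7.4; compound added, then 4α-PDD, Ca2+ fluorescence (Ex 480/Em 540 nm) read 8 min. Max-Min normalized to 10 μM Ruthenium Red (100%) and vehicle; IC50 from 10-point 3-fold series converted to Ki using 4α-PDD EC50 and concentration.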

Solubility test = assay type: physicochemical; conditions: artificial intestinal juice (phosphate buffer) with 1% DMSO, fassgf or other biorelevant, kinetic from dmso stock, artificial intestinal juice pH 6.8, 16 hours at 25° C.
In short: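 A DMSO stock was added to artificial intestinal juice at pH 6.8, giving 1% DMSO. The mixture stood 16 hours at 25° C. and was vacuum-filtered. Dissolved compound in the filtrate was quantified by HPLC or LC/MS/MS using absolute calibration.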

human TRPV4, sequence (Q9HBA0 whole entry): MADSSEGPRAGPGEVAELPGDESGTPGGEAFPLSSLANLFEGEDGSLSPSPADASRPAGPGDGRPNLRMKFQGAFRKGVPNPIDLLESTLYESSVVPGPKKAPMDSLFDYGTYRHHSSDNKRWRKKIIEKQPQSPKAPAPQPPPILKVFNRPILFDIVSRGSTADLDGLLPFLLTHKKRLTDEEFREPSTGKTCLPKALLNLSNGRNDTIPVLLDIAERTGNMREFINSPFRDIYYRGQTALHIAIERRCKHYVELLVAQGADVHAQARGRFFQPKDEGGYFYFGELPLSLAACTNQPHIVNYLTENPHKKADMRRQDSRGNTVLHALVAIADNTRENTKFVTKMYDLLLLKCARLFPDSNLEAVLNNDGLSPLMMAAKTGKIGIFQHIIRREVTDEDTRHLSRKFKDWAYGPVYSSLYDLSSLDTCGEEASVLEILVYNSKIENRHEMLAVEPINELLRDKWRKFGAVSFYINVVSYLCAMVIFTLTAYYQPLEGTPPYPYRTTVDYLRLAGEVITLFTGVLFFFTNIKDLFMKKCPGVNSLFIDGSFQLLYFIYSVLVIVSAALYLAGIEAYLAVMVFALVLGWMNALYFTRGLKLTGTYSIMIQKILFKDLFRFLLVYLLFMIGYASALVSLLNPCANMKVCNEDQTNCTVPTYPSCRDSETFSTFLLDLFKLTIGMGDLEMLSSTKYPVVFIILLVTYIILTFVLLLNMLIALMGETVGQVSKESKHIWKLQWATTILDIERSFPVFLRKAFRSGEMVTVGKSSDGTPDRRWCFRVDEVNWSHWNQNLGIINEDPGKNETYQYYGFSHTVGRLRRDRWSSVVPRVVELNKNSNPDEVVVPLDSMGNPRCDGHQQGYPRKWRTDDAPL

| Ki (human TRPV4) [µM] | solubility at 16 h (Solubility test) [µM] | SMILES |
| --- | --- | --- |
| 0.169 | > 50 | Cc1c(C(=O)Nc2cccc(C(F)(F)F)c2)cc(-c2ccccc2)n1CCCN(C)C [Compound I-018] |
| 0.427 | 10.1 (≈ 4.84 µg/mL) | Cc1c(C(=O)Nc2cccc(C(F)(F)F)c2)cc(-c2ccccc2)n1CCCNS(C)(=O)=O [Compound I-026] |

| SMILES | Ki (human TRPV4) [µM] | solubility at 16 h (Solubility test) [µM] |
| --- | --- | --- |
| Cc1c(C(=O)Nc2cccc(C(F)(F)F)c2)ccn1CCCN1CCOCC1 [Compound I-007] | 1.45 | > 50 |
